{"source": "patent US12533350B2", "about": "“Use of melanocortin-1 receptor agonist” (TANABE PHARMA CORPORATION, priority 2022, dated 2026)", "key": {"[1]": {"test_system": "lung tissue gene expression in BLM-induced SSc model", "details": "0.3 mg/kg", "description": "Total RNA of mouse lung tissue samples of PBSY_vehicle (control group without disease), BLM_vehicle (control group with disease), and BLM_Compound A (0.3 mg/kg) obtained from the BLM-induced SSc model (prophylactic evaluation) was used for analysis. The purity, concentration, and quality of the RNA samples were confirmed with NanoDrop 2000 (Thermo Fisher Scientific) and Agilent 2100 bioanalyser (Agilent Technologies). The RNA was then Cy3-labeled using a Low Input Quick Amp Labeling Kit, one-color (Agilent Technologies). Labeled cRNA samples were fragmented, and then hybridized with the Agilent SurePrint G3 Mouse GE v2 8×60 K Microarray (Agilent Technologies) using a Gene Expression Hybridization Kit (Agilent Technologies). After hybridization, the microarray was washed with the Gene Expression Wash Buffers Pack (Agilent Technologies) and imaged with a scanner to detect the signals. Signal intensities were evaluated with Agilent Feature Extraction software 12.0.\nBioinformatics analysis in this study was performed with software, including GeneSpring GX 14.9.1, IPA 2019 autumn, and Microsoft Excel 2010. Genes that fluctuated ≥2 fold in BLM_vehicle group in comparison with those of the PBS_vehicle group and that satisfied a p-value <0.05 of the moderated t-test were defined as “differentially expressed genes (DEGs) in the disease model”. Among DEGs, the genes in the Compound A treatment group that fluctuated ≥1.5 fold in the opposite direction and met a p-value <0.05 of the moderated t-test in comparison with those of the BLM_vehicle group were defined as “DEGs by Compound A treatment”. DEGs were inputted into IPA and two types of calculations were performed: “Canonical pathways” and “Diseases or functions”. Here, “Canonical pathways” is described as “pathways” and “Diseases or functions” is described as “category”. The former contains a list for a series of gene interactions and the latter is a list related to diseases and biological functions. These datasets are registered in the IPA software. Initially, the Fisher's exact test was used to calculate the probability of overlap between two sets of genes. Thereafter, downstream effect analysis (DSEA) was used to calculate the activation z-score. DSEA is a technique for predicting the direction of change in expression patterns (either activation or inhibition) based on the expected causal effects between genes and functions. Based on the results of the DSEA analysis, information about the cell type (macrophages, neutrophils, mononuclear leukocytes, T-lymphocytes, B-lymphocytes, smooth muscle cells, endothelial cells, epithelial cells, and fibroblasts) that may be involved in the pathogenesis of SSc was extracted. Subsequently, information regarding biological functions and molecular signaling pathways, such as inflammation/immune abnormality, vascular dysfunction, and fibrosis, involved in the pathogenesis of SSc are extracted.\nDNA microarray analysis was carried out using lung samples from a BLM-induced SSc model (prevention model) to which 0.3 mg/kg of Compound A was administered. Bioinformatics analysis was carried out using IPA software, and two datasets were used to perform two types of calculations (“Canonical pathways” and “Diseases or functions”). Downstream effect analysis was used to calculate the activation z-score."}, "[2]": {"test_system": "dermal fibroblasts from SSc patients", "assay": "TGF-β-induced human fibroblast activation, SSc patients", "type": "cell-based", "details": "concentration of 1000 nmol/L; TGF-β 10 ng/mL, 24 hours", "description": "Full-thickness skin biopsies were obtained from clinically involved skin of patients affected by dcSSc, who were recruited from the Systemic sclerosis clinic within the Leeds Institute of Rheumatic and Musculoskeletal Medicine (UK). Control skin samples were from healthy donors. All patients with dcSSc and healthy donors provided written informed consent through the stratification for risk of progression in systemic sclerosis (STRIKE SSC), which had been approved by the North-East Research Ethic committee. Patients with SSc fulfilled the 2013 ACR/EULAR classification criteria for SSc and were classified as having dcSSc according to the LeRoy and Medsger criteria.\nDermal fibroblasts were isolated from the skin biopsy samples of healthy donors and SSc patients. […]\nTotal RNA was extracted using the Zymo quick RNA mini prep kit according to manufacturer's instructions (Zymo Research Corporation). […] Quantitative RT-PCR was performed in triplicates using SYBR Green RT-PCR Mastermix Kit (Thermo Fisher Scientific) and the ABI PRISM 7500 Fast Real Time PCR System (Applied Biosystems). […]\nFIGS. 5(A)-5(B) show the effect of Compound A on human fibroblast activation. […] Each bar represents the mean±SEM of the measured values from three wells. […]"}}, "data": [{"smiles": "COC[C@H]1CN(C(=O)[C@]2(F)CN(C3CCCC3)C[C@H]2c2ccc(OC)cc2)C[C@@H]1c1ccc(C(F)(F)F)cc1N1CCC(C(=O)O)CC1", "note": "[Compound A, 1-{2-[(3S,4R)-1-{[(3R,4R)-1-cyclopentyl-3-fluoro-4-(4-methoxyphenyl)pyrrolidin-3-yl]carbonyl}-4-(methoxymethyl)pyrrolidin-3-yl]-5-(trifluoromethyl)phenyl}piperidine-4-carboxylic acid]", "values": [{"measurement": "gene expression fluctuation induced by BLM in IL-6 pathway genes (upstream and downstream)", "setting": "[1]", "result": "reversed"}, {"measurement": "IL-6 signaling pathway", "setting": "[1]; IPA canonical pathways", "result": "affected"}, {"measurement": "PPAR signaling pathway", "setting": "[1]; IPA canonical pathways", "result": "affected"}, {"measurement": "TREM1 signaling pathway", "setting": "[1]; IPA canonical pathways", "result": "affected"}, {"measurement": "oncostatin M signaling pathway", "setting": "[1]; IPA canonical pathways", "result": "affected"}, {"measurement": "category activation of antigen-presenting cells (activated by BLM)", "setting": "[1]; IPA downstream effect analysis", "result": "suppressed"}, {"measurement": "category angiogenesis (activated by BLM)", "setting": "[1]; IPA downstream effect analysis", "result": "suppressed"}, {"measurement": "category atherosclerosis (activated by BLM)", "setting": "[1]; IPA downstream effect analysis", "result": "suppressed"}, {"measurement": "category inflammatory response (activated by BLM)", "setting": "[1]; IPA downstream effect analysis", "result": "suppressed"}, {"measurement": "category vasculogenesis (activated by BLM)", "setting": "[1]; IPA downstream effect analysis", "result": "suppressed"}, {"measurement": "category vaso-occlusion (activated by BLM)", "setting": "[1]; IPA downstream effect analysis", "result": "suppressed"}, {"measurement": "number of DEGs by Compound A treatment (≥1.5 fold in opposite direction, p<0.05 vs BLM_vehicle)", "setting": "[1]; among 3337 DEGs in the disease model", "result": 1477}, {"measurement": "T-lymphocyte-related categories (IPA activation z-score)", "setting": "[1]; not changed by BLM", "result": "suppressed"}, {"measurement": "endothelial cell-related categories (IPA activation z-score)", "setting": "[1]; not changed by BLM", "result": "suppressed"}, {"measurement": "expression of the IL-6 gene among component genes of the IL-6 signaling pathway", "setting": "[1]; remarkably upregulated by BLM", "result": "downregulated the most"}, {"measurement": "TGF-β-induced increase in αSMA mRNA expression", "setting": "[2]", "result": "suppressed"}]}]}
